Assay results taken from patent publication US20220125051A1, “PRE-HARVEST DESICCATION METHOD” (SYNGENTA CROP PROTECTION AG, priority 2019, published 2022).
Where two headings read alike, the source gives them in different places.

Experiments:
Assay in all cases: Post-emergence efficacy, Method A
Format in all cases: in vivo
[1] = test system: Euphorbia heterophylla (EPHHL); details: evaluated after 13 days; for pest or weed control at 500 g/ha: Euphorbia heterophylla, post-emergence, 312 h
How it was run: (§1)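 Plants grown 14 days in glasshouse (24/16 °C, 14 h light, 65% humidity) were sprayed with compound formulated in IF50. The spray was diluted in 0.25% or 1% Empicol ESC70 plus 1% ammonium sulphate. Damage was scored 13 days later on a 0-100 scale, where 100 is total damage.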

[2] = test system: Ipomoea hederacea (IPOHE); details: evaluated after 13 days; for pest or weed control at 500 g/ha: Ipomoea hederacea, post-emergence, 312 h
How it was run: as §1

Lolium perenne (LOLPE) = details: evaluated after 13 days; for pest or weed control at 500 g/ha: Lolium perenne, post-emergence, 312 h
How it was run: as §1

Setaria faberi (SETFA) = details: evaluated after 13 days; for pest or weed control at 500 g/ha: Setaria faberi, post-emergence, 312 h
How it was run: as §1

[3] = test system: Chenopodium album (CHEAL); details: evaluated after 13 days; for pest or weed control at 500 g/ha: Chenopodium album, post-emergence, 312 h
How it was run: as §1

[4] = test system: Amaranthus palmeri (AMAPA); details: evaluated after 13 days; for pest or weed control at 500 g/ha: Amaranthus palmeri, post-emergence, 312 h
How it was run: as §1

Eleusine indica (ELEIN) = details: evaluated after 13 days; for pest or weed control at 500 g/ha: Eleusine indica, post-emergence, 312 h
How it was run: as §1

[5] = test system: Digitaria sanguinalis (DIGSA); details: evaluated after 13 days; for pest or weed control at 500 g/ha: Digitaria sanguinalis, post-emergence, 312 h
How it was run: as §1

[6] = test system: Echinochloa crus-galli (ECHCG); details: evaluated after 13 days; for pest or weed control at 500 g/ha: Echinochloa crus-galli, post-emergence, 312 h
How it was run: as §1

[7] = Application rate 500 g/Ha, 100=total damage to plant, 0=no damage to plant, read-out: Control of weed species after post-emergence application, EPHHL
[8] = Application rate 500 g/Ha, 100=total damage to plant, 0=no damage to plant, read-out: Control of weed species after post-emergence application, IPOHE
[9] = Application rate 500 g/Ha, 100=total damage to plant, 0=no damage to plant, read-out: Control of weed species after post-emergence application, LOLPE
[10] = Application rate 500 g/Ha, 100=total damage to plant, 0=no damage to plant, read-out: Control of weed species after post-emergence application, SETFA
[11] = Application rate 500 g/Ha, 100=total damage to plant, 0=no damage to plant, read-out: Control of weed species after post-emergence application, CHEAL
[12] = Application rate 500 g/Ha, 100=total damage to plant, 0=no damage to plant, read-out: Control of weed species after post-emergence application, AMAPA
[13] = Application rate 500 g/Ha, 100=total damage to plant, 0=no damage to plant, read-out: Control of weed species after post-emergence application, ELEIN
[14] = Application rate 500 g/Ha, 100=total damage to plant, 0=no damage to plant, read-out: Control of weed species after post-emergence application, DIGSA
[15] = Application rate 500 g/Ha, 100=total damage to plant, 0=no damage to plant, read-out: Control of weed species after post-emergence application, ECHCG
[16] = Application rate 500 g/Ha, 100=total damage to plant, 0=no damage to plant

| SMILES | pest or weed control at 500 g/ha [1, 7] [%] | pest or weed control at 500 g/ha [2, 8] [%] | pest or weed control at 500 g/ha (Lolium perenne (LOLPE); [9]) [%] | pest or weed control at 500 g/ha (Setaria faberi (SETFA); [10]) [%] | pest or weed control at 500 g/ha [3, 11] [%] | pest or weed control at 500 g/ha [4, 12] [%] | pest or weed control at 500 g/ha (Eleusine indica (ELEIN); [13]) [%] | pest or weed control at 500 g/ha [5, 14] [%] | pest or weed control at 500 g/ha [6, 15] [%] | further results |
| --- | --- | --- | --- | --- | --- | --- | --- | --- | --- | --- |
| Cc1cnc(-c2cc[n+](CCC(=O)O)nc2)c(Cl)c1 [Compound A137] | 20 | 10 | 20 | 40 | 20 | 60 | 40 | 40 | 30 | – |
| COC(=O)CC[n+]1ccc(-c2cccnn2)cn1 [Compound A139] | 90 | 10 | 90 | 100 | 100 | 80 | 100 | 100 | 100 | – |
| O=S(=O)([O-])CC[n+]1ccc(-c2ncccc2C(F)(F)F)cn1 [Compound A140] | 50 | 20 | 0 | 30 | 50 | 60 | 10 | 10 | 20 | – |
| O=S(=O)([O-])CC[n+]1ccc(-c2ncccc2Cl)cn1 [Compound A141] | 20 | 30 | 30 | 50 | 60 | 100 | 60 | 40 | 50 | – |
| O=S(=O)([O-])CC[n+]1ccc(-c2ncc(Cl)cc2Cl)cn1 [Compound A142] | 60 | 20 | 10 | 30 | 20 | 10 | 60 | 40 | 40 | – |
| O=C(O)CC[n+]1ccc(-c2ncc(F)cc2F)cn1 [Compound A144] | 20 | 10 | 10 | 20 | 10 | 20 | 20 | 30 | 20 | – |
| Cc1n[n+](CCC(=O)O)ccc1-c1ccccn1 [Compound A145] | 10 | 10 | 0 | 0 | 10 | 10 | 0 | 10 | 0 | – |
| O=C(O)c1ccnc(-c2cc[n+](CCCS(=O)(=O)[O-])nc2)n1 [Compound A146] | – | – | – | – | – | – | – | – | – | Control of weed species after post-emergence application, EPHHL [1, 16]: 50; Control of weed species after post-emergence application, IPOHE [2, 16]: 30; Control of weed species after post-emergence application, LOLPE (Lolium perenne (LOLPE); [16]): 50; Control of weed species after post-emergence application, SETFA (Setaria faberi (SETFA); [16]): 100; Control of weed species after post-emergence application, CHEAL [3, 16]: 40; Control of weed species after post-emergence application, AMAPA [4, 16]: 90; Control of weed species after post-emergence application, ELEIN (Eleusine indica (ELEIN); [16]): 80; Control of weed species after post-emergence application, DIGSA [5, 16]: 80; Control of weed species after post-emergence application, ECHCG [6, 16]: 90 |
| N#Cc1ccnc(-c2cc[n+](CCCS(=O)(=O)[O-])nc2)n1 [Compound A147] | 70 | 60 | 40 | 40 | 50 | 40 | 20 | 20 | 30 | – |
| O=C(O)CC[n+]1ccc(-c2ccccn2)cn1 [Compound A148] | 60 | 20 | 20 | 50 | 40 | 100 | 40 | 50 | 50 | – |
| O=C(O)CC[n+]1ccc(-c2ncccc2Cl)cn1 [Compound A149] | 30 | 10 | 40 | 40 | 40 | 30 | 60 | 50 | 50 | – |
| Cc1cc(F)cnc1-c1cc[n+](CCC(=O)O)nc1 [Compound A151] | 40 | 10 | 10 | 20 | 20 | 20 | 20 | 20 | 20 | – |
| Cc1cnc(-c2cc[n+](CCS(=O)(=O)[O-])nc2)c(C)c1 [Compound A152] | 20 | 0 | 10 | 20 | 10 | 20 | 20 | 30 | 20 | – |
| Cc1c[n+](CCC(=O)O)ncc1-c1ncccn1 [Compound A153] | – | – | – | – | – | – | – | – | – | pest or weed control at 500 g/ha ([1]; Application Rate 500 g/Ha, Method A, read-out: Control of weed species after post-emergence application, EPHHL (100=total damage to plant; 0=no damage to plant)): 40%; pest or weed control at 500 g/ha ([2]; Application Rate 500 g/Ha, Method A, read-out: Control of weed species after post-emergence application, IPOHE (100=total damage to plant; 0=no damage to plant)): 20%; pest or weed control at 500 g/ha (Lolium perenne (LOLPE); Application Rate 500 g/Ha, Method A, read-out: Control of weed species after post-emergence application, LOLPE (100=total damage to plant; 0=no damage to plant)): 0%; pest or weed control at 500 g/ha (Setaria faberi (SETFA); Application Rate 500 g/Ha, Method A, read-out: Control of weed species after post-emergence application, SETFA (100=total damage to plant; 0=no damage to plant)): 20%; pest or weed control at 500 g/ha ([3]; Application Rate 500 g/Ha, Method A, read-out: Control of weed species after post-emergence application, CHEAL (100=total damage to plant; 0=no damage to plant)): 60%; pest or weed control at 500 g/ha ([4]; Application Rate 500 g/Ha, Method A, read-out: Control of weed species after post-emergence application, AMAPA (100=total damage to plant; 0=no damage to plant)): 90%; pest or weed control at 500 g/ha (Eleusine indica (ELEIN); Application Rate 500 g/Ha, Method A, read-out: Control of weed species after post-emergence application, ELEIN (100=total damage to plant; 0=no damage to plant)): 20%; pest or weed control at 500 g/ha ([5]; Application Rate 500 g/Ha, Method A, read-out: Control of weed species after post-emergence application, DIGSA (100=total damage to plant; 0=no damage to plant)): 20%; pest or weed control at 500 g/ha ([6]; Application Rate 500 g/Ha, Method A, read-out: Control of weed species after post-emergence application, ECHCG (100=total damage to plant; 0=no damage to plant)): 40% |
